Key:
mushroom tyrosinase = assay: Inhibition of tyrosinase activity; assay type: biochemical; conditions: L-tyrosine, 37° C., 20 minutes, absorbance 490 nm
Protocol: The effect of New Materials 31 and 32 on inhibiting tyrosinase activity was evaluated.
Specifically, tyrosinase and tyrosine derived from mushroom were obtained from Sigma Chemical. Together with 150 μl of 0.1 M phosphate buffer (pH 6.5), 8 μl of mushroom tyrosinase (2,100 unit/ml) and 0.05 M concentration of L-tyrosine, arbutin and New Materials 31 and 32 were treated at the concentrations of following Table 3, respectively. The tyrosinase activity was evaluated by performing the enzyme reaction at 37° C. for 20 minutes and then measuring absorbance at 490 nm using a microplate reader (Bio-Rad 3550, Richmond, Calif., U.S.A.).

healthy adult examinees = assay: HRIPT (Human repeated insult patch tests), skin accumulated stimulus; assay type: in vivo; design: key to skin reactivity (ICDRG criteria): −: negative (no response); ±: doubtful or slight erythema, etc.; +: weak reaction (which is accompanied with no phlyctenule), erythema, papule; ++: severe reaction (which is accompanied with phylctenule), erythema, papule, phlyctenule; +++: strong reaction, bullae reaction; conditions: for average reactivity: 9 patches, 15 examinees; for Number of examinees who exhibited ±, +, or ++ reactivity 1st: 1st patch; for Number of examinees who exhibited ±, +, or ++ reactivity 2nd: 2nd patch; for Number of examinees who exhibited ±, +, or ++ reactivity 3rd: 3rd patch; for Number of examinees who exhibited ±, +, or ++ reactivity 4th: 4th patch; for Number of examinees who exhibited ±, +, or ++ reactivity 5th: 5th patch; for Number of examinees who exhibited ±, +, or ++ reactivity 6th: 6th patch; for Number of examinees who exhibited ±, +, or ++ reactivity 7th: 7th patch; for Number of examinees who exhibited ±, +, or ++ reactivity 8th: 8th patch; for Number of examinees who exhibited ±, +, or ++ reactivity 9th: 9th patch
Protocol: HRIPT (Human repeated insult patch tests) was conducted in order to identify skin accumulated stimulus of quercetin3-O-[3-O″-(E)-p-coumaroyl][β-D-glucopyranosyl-(1→3)-O-α-L-rhamnopyranosyl-(1→6)-O-β-D-glucopyranoside] and quercetin3-O-[3-O″-(E)-p-coumaroyl][α-L-rhamnopyranosyl-(1→6)-O-β-D-glucopyranoside]and to calculate the concentration range that can be used in skin.
Specifically, 15 healthy adult examinees were randomly selected, and test compositions in which the compounds were respectively comprised in an amount of 0.5 wt. %, 1 wt. %, and 3 wt. % (the compositions for skin, comprising an emulsifying agent, a stabilizer, purified water, etc. in addition to the compounds) were dropped in the amount of 20 μl per chamber (IQ chamber, Epitest Ltd, Finland), and patched on the right site of the upper back of the examinees, and then, after 24 hours, the patch was replaced with a new patch. A total of 9 patches were conducted, three times a week for total 3 weeks, in such manner, the skin reactions before and after patch were examined every time, and the skin reactions until 48 hours after removing the final patch were observed, and the average reactivity was observed.
The skin reaction was determined according to the criteria of International Contact Dermatitis Research Group (ICDRG). In the above table, “New Material 31” refers to quercetin3-O-[3-O″-(E)-p-coumaroyl][β-D-glucopyranosyl-(1→3)-O-α-L-rhamnopyranosyl-(1→6)-O-β-D-glucopyranoside], and “New Material 32” refers to quercetin3-O-[3-O″-(E)-p-coumaroyl][α-L-rhamnopyranosyl-(1→6)-O-β-D-glucopyranoside].

`C[C@@H]1O[C@@H](OC[C@H]2O[C@@H](Oc3c(-c4ccc(O)c(O)c4)oc4cc(O)cc(O)c4c3=O)[C@H](O)[C@@H](OC(=O)/C=C/c3ccc(O)cc3)[C@@H]2O)[C@H](O)[C@H](O)[C@H]1O` [New Material 32, quercetin3-O-[3-O″-(E)-p-coumaroyl][α-L-rhamnopyranosyl-(1→6)-O-β-D-glucopyranoside]] was tested, and the “IC50 inhibiting tyrosinase activity” value (mushroom tyrosinase) was 19 ppm, the average reactivity (healthy adult examinees; 0.5 wt.% in test composition) was 0 and the “skin reactivity (ICDRG criteria)” value (healthy adult examinees; 0.5 wt.%, 1 wt.% and 3 wt.%, 9 patches in 3 weeks) was “−”. The “Number of examinees who exhibited ±, +, or ++ reactivity 1st” value (“Number … or ++ reactivity 1st” below) (healthy adult examinees; 0.5 wt.%, line 1 of 3 (±)) was 0 number, the “Number … or ++ reactivity 1st” value (healthy adult examinees; 0.5 wt.%, line 2 of 3 (+)) was 0 number and the “Number … or ++ reactivity 1st” value (healthy adult examinees; 0.5 wt.%, line 3 of 3 (++)) was 0 number. The “Number of examinees who exhibited ±, +, or ++ reactivity 2nd” value (shortened to “Number … or ++ reactivity 2nd”) (healthy adult examinees; 0.5 wt.%, line 1 of 3 (±)) was 0 number, the “Number … or ++ reactivity 2nd” value (healthy adult examinees; 0.5 wt.%, line 2 of 3 (+)) was 0 number and the “Number … or ++ reactivity 2nd” value (healthy adult examinees; 0.5 wt.%, line 3 of 3 (++)) was 0 number. For the same compound, the “Number of examinees who exhibited ±, +, or ++ reactivity 3rd” value (“Number … or ++ reactivity 3rd” for short) (healthy adult examinees; 0.5 wt.%, line 1 of 3 (±)) was 0 number, the “Number … or ++ reactivity 3rd” value (healthy adult examinees; 0.5 wt.%, line 2 of 3 (+)) was 0 number and the “Number … or ++ reactivity 3rd” value (healthy adult examinees; 0.5 wt.%, line 3 of 3 (++)) was 0 number. For the same compound, the “Number of examinees who exhibited ±, +, or ++ reactivity 4th” value (“Number … or ++ reactivity 4th” below) (healthy adult examinees; 0.5 wt.%, line 1 of 3 (±)) was 0 number, the “Number … or ++ reactivity 4th” value (healthy adult examinees; 0.5 wt.%, line 2 of 3 (+)) was 0 number and the “Number … or ++ reactivity 4th” value (healthy adult examinees; 0.5 wt.%, line 3 of 3 (++)) was 0 number. The “Number of examinees who exhibited ±, +, or ++ reactivity 5th” value (shortened to “Number … or ++ reactivity 5th”) (healthy adult examinees; 0.5 wt.%, line 1 of 3 (±)) was 0 number, the “Number … or ++ reactivity 5th” value (healthy adult examinees; 0.5 wt.%, line 2 of 3 (+)) was 0 number and the “Number … or ++ reactivity 5th” value (healthy adult examinees; 0.5 wt.%, line 3 of 3 (++)) was 0 number. The “Number of examinees who exhibited ±, +, or ++ reactivity 6th” value (“Number … or ++ reactivity 6th” for short) (healthy adult examinees; 0.5 wt.%, line 1 of 3 (±)) was 0 number, the “Number … or ++ reactivity 6th” value (healthy adult examinees; 0.5 wt.%, line 2 of 3 (+)) was 0 number and the “Number … or ++ reactivity 6th” value (healthy adult examinees; 0.5 wt.%, line 3 of 3 (++)) was 0 number. The “Number of examinees who exhibited ±, +, or ++ reactivity 7th” value (“Number … or ++ reactivity 7th” below) (healthy adult examinees; 0.5 wt.%, line 1 of 3 (±)) was 0 number, the “Number … or ++ reactivity 7th” value (healthy adult examinees; 0.5 wt.%, line 2 of 3 (+)) was 0 number and the “Number … or ++ reactivity 7th” value (healthy adult examinees; 0.5 wt.%, line 3 of 3 (++)) was 0 number. The “Number of examinees who exhibited ±, +, or ++ reactivity 8th” value (shortened to “Number … or ++ reactivity 8th”) (healthy adult examinees; 0.5 wt.%, line 1 of 3 (±)) was 0 number, the “Number … or ++ reactivity 8th” value (healthy adult examinees; 0.5 wt.%, line 2 of 3 (+)) was 0 number and the “Number … or ++ reactivity 8th” value (healthy adult examinees; 0.5 wt.%, line 3 of 3 (++)) was 0 number. For the same compound, the “Number of examinees who exhibited ±, +, or ++ reactivity 9th” value (“Number … or ++ reactivity 9th” for short) (healthy adult examinees; 0.5 wt.%, line 1 of 3 (±)) was 0 number, the “Number … or ++ reactivity 9th” value (healthy adult examinees; 0.5 wt.%, line 2 of 3 (+)) was 0 number and the “Number … or ++ reactivity 9th” value (healthy adult examinees; 0.5 wt.%, line 3 of 3 (++)) was 0 number. The average reactivity (healthy adult examinees; 1 wt.% in test composition) was 0, the “Number … or ++ reactivity 1st” value (healthy adult examinees; 1 wt.%, line 1 of 3 (±)) was 0 number and the “Number … or ++ reactivity 1st” value (healthy adult examinees; 1 wt.%, line 2 of 3 (+)) was 0 number. The “Number … or ++ reactivity 1st” value (healthy adult examinees; 1 wt.%, line 3 of 3 (++)) was 0 number, the “Number … or ++ reactivity 2nd” value (healthy adult examinees; 1 wt.%, line 1 of 3 (±)) was 0 number and the “Number … or ++ reactivity 2nd” value (healthy adult examinees; 1 wt.%, line 2 of 3 (+)) was 0 number. The “Number … or ++ reactivity 2nd” value (healthy adult examinees; 1 wt.%, line 3 of 3 (++)) was 0 number, the “Number … or ++ reactivity 3rd” value (healthy adult examinees; 1 wt.%, line 1 of 3 (±)) was 0 number and the “Number … or ++ reactivity 3rd” value (healthy adult examinees; 1 wt.%, line 2 of 3 (+)) was 0 number. For the same compound, the “Number … or ++ reactivity 3rd” value (healthy adult examinees; 1 wt.%, line 3 of 3 (++)) was 0 number, the “Number … or ++ reactivity 4th” value (healthy adult examinees; 1 wt.%, line 1 of 3 (±)) was 0 number and the “Number … or ++ reactivity 4th” value (healthy adult examinees; 1 wt.%, line 2 of 3 (+)) was 0 number. The “Number … or ++ reactivity 4th” value (healthy adult examinees; 1 wt.%, line 3 of 3 (++)) was 0 number, the “Number … or ++ reactivity 5th” value (healthy adult examinees; 1 wt.%, line 1 of 3 (±)) was 0 number and the “Number … or ++ reactivity 5th” value (healthy adult examinees; 1 wt.%, line 2 of 3 (+)) was 0 number. The “Number … or ++ reactivity 5th” value (healthy adult examinees; 1 wt.%, line 3 of 3 (++)) was 0 number, the “Number … or ++ reactivity 6th” value (healthy adult examinees; 1 wt.%, line 1 of 3 (±)) was 0 number and the “Number … or ++ reactivity 6th” value (healthy adult examinees; 1 wt.%, line 2 of 3 (+)) was 0 number. The “Number … or ++ reactivity 6th” value (healthy adult examinees; 1 wt.%, line 3 of 3 (++)) was 0 number, the “Number … or ++ reactivity 7th” value (healthy adult examinees; 1 wt.%, line 1 of 3 (±)) was 0 number and the “Number … or ++ reactivity 7th” value (healthy adult examinees; 1 wt.%, line 2 of 3 (+)) was 0 number. For the same compound, the “Number … or ++ reactivity 7th” value (healthy adult examinees; 1 wt.%, line 3 of 3 (++)) was 0 number, the “Number … or ++ reactivity 8th” value (healthy adult examinees; 1 wt.%, line 1 of 3 (±)) was 0 number and the “Number … or ++ reactivity 8th” value (healthy adult examinees; 1 wt.%, line 2 of 3 (+)) was 0 number. The “Number … or ++ reactivity 8th” value (healthy adult examinees; 1 wt.%, line 3 of 3 (++)) was 0 number, the “Number … or ++ reactivity 9th” value (healthy adult examinees; 1 wt.%, line 1 of 3 (±)) was 0 number and the “Number … or ++ reactivity 9th” value (healthy adult examinees; 1 wt.%, line 2 of 3 (+)) was 0 number. The “Number … or ++ reactivity 9th” value (healthy adult examinees; 1 wt.%, line 3 of 3 (++)) was 0 number, the average reactivity (healthy adult examinees; 3 wt.% in test composition) was 0 and the “Number … or ++ reactivity 1st” value (healthy adult examinees; 3 wt.%, line 1 of 3 (±)) was 0 number. The “Number … or ++ reactivity 1st” value (healthy adult examinees; 3 wt.%, line 2 of 3 (+)) was 0 number, the “Number … or ++ reactivity 1st” value (healthy adult examinees; 3 wt.%, line 3 of 3 (++)) was 0 number and the “Number … or ++ reactivity 2nd” value (healthy adult examinees; 3 wt.%, line 1 of 3 (±)) was 0 number. The “Number … or ++ reactivity 2nd” value (healthy adult examinees; 3 wt.%, line 2 of 3 (+)) was 0 number, the “Number … or ++ reactivity 2nd” value (healthy adult examinees; 3 wt.%, line 3 of 3 (++)) was 0 number and the “Number … or ++ reactivity 3rd” value (healthy adult examinees; 3 wt.%, line 1 of 3 (±)) was 0 number. For the same compound, the “Number … or ++ reactivity 3rd” value (healthy adult examinees; 3 wt.%, line 2 of 3 (+)) was 0 number, the “Number … or ++ reactivity 3rd” value (healthy adult examinees; 3 wt.%, line 3 of 3 (++)) was 0 number and the “Number … or ++ reactivity 4th” value (healthy adult examinees; 3 wt.%, line 1 of 3 (±)) was 0 number. The “Number … or ++ reactivity 4th” value (healthy adult examinees; 3 wt.%, line 2 of 3 (+)) was 0 number, the “Number … or ++ reactivity 4th” value (healthy adult examinees; 3 wt.%, line 3 of 3 (++)) was 0 number and the “Number … or ++ reactivity 5th” value (healthy adult examinees; 3 wt.%, line 1 of 3 (±)) was 0 number. For the same compound, the “Number … or ++ reactivity 5th” value (healthy adult examinees; 3 wt.%, line 2 of 3 (+)) was 0 number, the “Number … or ++ reactivity 5th” value (healthy adult examinees; 3 wt.%, line 3 of 3 (++)) was 0 number and the “Number … or ++ reactivity 6th” value (healthy adult examinees; 3 wt.%, line 1 of 3 (±)) was 0 number. For the same compound, the “Number … or ++ reactivity 6th” value (healthy adult examinees; 3 wt.%, line 2 of 3 (+)) was 0 number, the “Number … or ++ reactivity 6th” value (healthy adult examinees; 3 wt.%, line 3 of 3 (++)) was 0 number and the “Number … or ++ reactivity 7th” value (healthy adult examinees; 3 wt.%, line 1 of 3 (±)) was 0 number. The “Number … or ++ reactivity 7th” value (healthy adult examinees; 3 wt.%, line 2 of 3 (+)) was 0 number, the “Number … or ++ reactivity 7th” value (healthy adult examinees; 3 wt.%, line 3 of 3 (++)) was 0 number and the “Number … or ++ reactivity 8th” value (healthy adult examinees; 3 wt.%, line 1 of 3 (±)) was 0 number. For the same compound, the “Number … or ++ reactivity 8th” value (healthy adult examinees; 3 wt.%, line 2 of 3 (+)) was 0 number, the “Number … or ++ reactivity 8th” value (healthy adult examinees; 3 wt.%, line 3 of 3 (++)) was 0 number and the “Number … or ++ reactivity 9th” value (healthy adult examinees; 3 wt.%, line 1 of 3 (±)) was 0 number. The “Number … or ++ reactivity 9th” value (healthy adult examinees; 3 wt.%, line 2 of 3 (+)) was 0 number and the “Number … or ++ reactivity 9th” value (healthy adult examinees; 3 wt.%, line 3 of 3 (++)) was 0 number.

Source: patent US11306117B2, “Whitening composition containing novel quercetin-based compound” (AMOREPACIFIC CORPORATION, priority 2017, dated 2022)
